Conditions: 283.14 K, Liquid, Vibrating tube method

FC(C(F)(F)F)C(F)(F)F [1,1,1,2,3,3,3-heptafluoropropane]
Conditions	mass density [kg/m3]
13521 kPa	1512.6
13550 kPa	1512.5
13594 kPa	1512.8
13629 kPa	1513
13672 kPa	1513.2
13707 kPa	1513.2
13754 kPa	1513.5
13783 kPa	1513.6
13814 kPa	1513.7
13848 kPa	1513.7
13878 kPa	1513.9
13913 kPa	1514.1
13943 kPa	1514.1
13983 kPa	1514.3
14013 kPa	1514.5
14057 kPa	1514.7
14086 kPa	1514.9
14121 kPa	1514.9
14157 kPa	1515.1
14187 kPa	1515.1
14217 kPa	1515.2
14261 kPa	1515.5
14304 kPa	1515.6
14343 kPa	1515.8
14377 kPa	1515.8
14406 kPa	1516.1
14435 kPa	1516.1
14464 kPa	1516.2
14504 kPa	1516.4
14534 kPa	1516.3
14580 kPa	1516.6
15750 kPa	1521.1
15778 kPa	1521.3
15811 kPa	1521.3
15838 kPa	1521.3
15867 kPa	1521.5
15896 kPa	1521.5
15929 kPa	1521.8
15966 kPa	1521.9
15994 kPa	1521.8
16031 kPa	1522
16054 kPa	1522.2
16198 kPa	1522.7
16235 kPa	1522.8
16269 kPa	1522.9
16306 kPa	1523.1
16339 kPa	1523.3
16372 kPa	1523.4
16405 kPa	1523.5
16433 kPa	1523.7
16471 kPa	1523.7
16499 kPa	1523.9
16541 kPa	1523.9
16574 kPa	1524.1
16649 kPa	1524.3
16739 kPa	1524.6
16776 kPa	1524.8
16803 kPa	1525
16836 kPa	1525
16864 kPa	1525.1
16892 kPa	1525.2
16935 kPa	1525.3
16967 kPa	1525.6
17015 kPa	1525.7
17055 kPa	1525.8
17079 kPa	1525.9
17116 kPa	1526
17145 kPa	1526.1
17173 kPa	1526.2
17206 kPa	1526.4
17248 kPa	1526.5
17271 kPa	1526.5
17304 kPa	1526.7
17332 kPa	1526.8
17370 kPa	1527
17413 kPa	1527.2
17622 kPa	1527.9
17656 kPa	1528.1
17691 kPa	1528.1
17729 kPa	1528.3
17758 kPa	1528.4
17786 kPa	1528.5
17820 kPa	1528.6
17850 kPa	1528.6
17893 kPa	1528.8
17922 kPa	1529
17961 kPa	1529
18006 kPa	1529.3
18060 kPa	1529.4
18090 kPa	1529.5
18129 kPa	1529.6
18164 kPa	1529.7
18194 kPa	1529.9
18233 kPa	1530
18274 kPa	1530
18312 kPa	1530.2
18389 kPa	1530.5
18616 kPa	1531.3
18645 kPa	1531.6
18675 kPa	1531.4
18719 kPa	1531.7
18754 kPa	1531.8
18793 kPa	1531.9
18821 kPa	1532
18862 kPa	1532.3
18911 kPa	1532.4
18933 kPa	1532.4
18973 kPa	1532.7
19007 kPa	1532.6
19042 kPa	1532.7
19087 kPa	1533
19118 kPa	1533.1
19150 kPa	1533.1
19177 kPa	1533.3
19213 kPa	1533.4
19240 kPa	1533.5
19277 kPa	1533.6
19309 kPa	1533.7
19337 kPa	1533.9
19373 kPa	1534
19406 kPa	1534.1
20075 kPa	1536.4
20104 kPa	1536.4
20142 kPa	1536.6
20175 kPa	1536.7
20372 kPa	1537.3
20424 kPa	1537.4
20453 kPa	1537.6
22509 kPa	1544.4
22609 kPa	1544.6
22639 kPa	1544.7
22675 kPa	1545
22904 kPa	1545.6
22939 kPa	1545.7
23014 kPa	1546
23096 kPa	1546.2
23454 kPa	1547.3
23496 kPa	1547.4
23531 kPa	1547.5
23562 kPa	1547.6
23603 kPa	1547.8
23638 kPa	1548
23709 kPa	1548.1
23828 kPa	1548.6
23869 kPa	1548.8
23896 kPa	1548.7
23944 kPa	1548.9
23985 kPa	1548.9
24017 kPa	1549.2
24350 kPa	1550.1
24387 kPa	1550.2
24422 kPa	1550.4
24459 kPa	1550.4
24490 kPa	1550.5
24532 kPa	1550.8
24572 kPa	1550.8
25104 kPa	1552.3
25136 kPa	1552.5
25173 kPa	1552.8
25209 kPa	1552.7
25250 kPa	1553
25282 kPa	1552.9
25327 kPa	1553.2
25365 kPa	1553.4
25402 kPa	1553.3
25434 kPa	1553.5
25476 kPa	1553.6
25550 kPa	1553.9
25673 kPa	1554.3
25766 kPa	1554.5
25800 kPa	1554.6
25832 kPa	1554.7
25913 kPa	1554.9
26847 kPa	1557.6
27304 kPa	1559.1
27346 kPa	1559.3
27389 kPa	1559.3
27418 kPa	1559.4
27466 kPa	1559.4
27495 kPa	1559.6
27777 kPa	1560.4
28197 kPa	1561.7
28230 kPa	1561.8
28264 kPa	1561.8
28306 kPa	1562.1
28335 kPa	1562.1
28371 kPa	1562
28399 kPa	1562.2
28437 kPa	1562.3
28909 kPa	1563.6
28942 kPa	1563.9
28978 kPa	1564
29016 kPa	1564.1
29044 kPa	1564.1
29121 kPa	1564.3
29155 kPa	1564.3
29185 kPa	1564.4
29223 kPa	1564.5
29257 kPa	1564.7
29291 kPa	1564.7
29319 kPa	1564.9
29391 kPa	1565
29500 kPa	1565.3
29534 kPa	1565.4
30122 kPa	1567.2

Source: the NIST ThermoML archive (doi:10.1021/je700260f)
